Measurements taken from US20120263649A1, “DETECTION OF MYCOBACTERIA” (priority 2009, published 2012).

Key:
Ag85A = Ag85A (Mycobacterium tuberculosis, UniProt P9WQP3); format: biochemical; conditions: ratio of peak height of mono-hexanoyl ester of labelled/derivatised Tre to peak height of labelled/derivatised Tre; 500 μM di-hexanoyl ester, 500 μM substrate, 100 nM enzyme, 1 mM TEA pH 7.2, 37° C; compound 1 (Tre) = 100
Ag85B = Ag85B (Mycobacterium tuberculosis, UniProt P9WQP1); format: biochemical; conditions: ratio of peak height of mono-hexanoyl ester of labelled/derivatised Tre to peak height of labelled/derivatised Tre; 500 μM di-hexanoyl ester, 500 μM substrate, 100 nM enzyme, 1 mM TEA pH 7.2, 37° C; compound 1 (Tre) = 100
Ag85C = Ag85C (Mycobacterium tuberculosis, UniProt P9WQN9); format: biochemical; conditions: ratio of peak height of mono-hexanoyl ester of labelled/derivatised Tre to peak height of labelled/derivatised Tre; 500 μM di-hexanoyl ester, 500 μM substrate, 100 nM enzyme, 1 mM TEA pH 7.2, 37° C; compound 1 (Tre) = 100
[1] = tested on: J774 Macrophages infected with H37Rv Mtb; assay: FITC-Tre uptake into infected macrophages, confocal microscopy with anti-Mtb antibody; format: cell-based, murine; conditions: FIG. 7(j); antibody labelled with Alexa-594
Protocol: J774 Macrophages were grown to confluency on coverslips and then were infected with H37Rv Mtb (2-3 bacteria/macrophage). After 4 hours infection time, macrophages were washed to remove free bacteria and FITC-Tre was added in ethanol to desired concentrations (1 μM, 10 μM, 50 μM, 100 μM). Quantum dots (QDs) were treated in an analogous fashion and were added to a concentration of dots of (7 nm) with roughly 110 sugars/dot (1 μM effective sugar concentration) Uncoated QDs were utilized as a control. RFP expressing BCG was also treated in an identical fashion.
Cells were fixed at different timepoints utilizing the following procedure: Media was removed and cells were washed in PBS Buffer. Cells were then fixed in an aqueous solution of 5% formalin is phosphate buffered saline (PBS) for 15 minutes and then washed again using two 2-minute treatments with PBS (0.5 ml) for 2 min. […]
Images of stained cells were obtained by confocal microscopy (Leica SP2, Leica Microsystems, Exton, Pa.) using a 63× oil immersion objective NA 1.4. Multiple fields were sampled, and representative images were recorded. […] DAPI was first excited at 405 nm and emission spectrum was recorded (416 nm-482 nm) before the other fluorochromes were excited and emission spectrums recorded. Essential Sequential Z sections of stained cells were also recorded for generation of stacked images through cell. […]

Ag85C, sequence (P9WQN9 46-340): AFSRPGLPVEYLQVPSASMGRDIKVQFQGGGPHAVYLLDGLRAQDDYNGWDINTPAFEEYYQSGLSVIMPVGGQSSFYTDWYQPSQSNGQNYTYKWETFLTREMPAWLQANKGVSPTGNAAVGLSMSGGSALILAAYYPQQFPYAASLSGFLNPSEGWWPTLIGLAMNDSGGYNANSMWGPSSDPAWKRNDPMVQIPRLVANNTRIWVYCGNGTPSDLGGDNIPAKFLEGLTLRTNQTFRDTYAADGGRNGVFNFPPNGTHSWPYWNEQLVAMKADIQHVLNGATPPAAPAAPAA
Ag85A, sequence (P9WQP3 44-338): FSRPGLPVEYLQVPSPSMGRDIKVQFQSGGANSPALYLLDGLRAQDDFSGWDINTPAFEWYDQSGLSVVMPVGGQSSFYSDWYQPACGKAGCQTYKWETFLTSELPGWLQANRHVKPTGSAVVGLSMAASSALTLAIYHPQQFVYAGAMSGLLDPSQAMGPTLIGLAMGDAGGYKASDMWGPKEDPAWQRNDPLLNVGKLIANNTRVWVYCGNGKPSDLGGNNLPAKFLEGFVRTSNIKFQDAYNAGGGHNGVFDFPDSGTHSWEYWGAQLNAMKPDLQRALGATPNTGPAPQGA
Ag85B, sequence (P9WQP1 41-325): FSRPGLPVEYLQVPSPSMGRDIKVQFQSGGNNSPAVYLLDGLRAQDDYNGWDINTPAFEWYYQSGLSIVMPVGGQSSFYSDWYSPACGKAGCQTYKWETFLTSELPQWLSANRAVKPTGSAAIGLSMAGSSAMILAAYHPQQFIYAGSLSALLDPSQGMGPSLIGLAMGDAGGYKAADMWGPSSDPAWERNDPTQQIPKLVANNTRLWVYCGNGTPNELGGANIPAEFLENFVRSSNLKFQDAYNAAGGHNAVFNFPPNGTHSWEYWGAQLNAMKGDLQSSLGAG

| SMILES | Relative substrate response towards transesterification, Ag85A (Ag85A) | Relative substrate response towards transesterification, Ag85B (Ag85B) | Relative substrate response towards transesterification, Ag85C (Ag85C) | Colocalization of probe with anti-Mtb antibody signal in infected macrophages [1] |
| --- | --- | --- | --- | --- |
| C[C@]1(O[C@H]2OC(CO)[C@@H](O)C(O)C2F)OC(CO)[C@@H](O)C(O)C1O (stereo partly drawn) [Compound 3, 1-Deoxy-α-D-gluco-hept-2-ulopyranosyl-(2→1)-2-deoxy-2-fluoro-α-D-glucopyranoside] | 73 | 1415 | 102 |  |
| OC[C@H]1O[C@H](O[C@H]2O[C@H](CO)[C@@H](O)[C@H](O)[C@H]2O)[C@H](O)[C@@H](O)[C@@H]1O [Compound 1, trehalose, reference compound] | 100 | 100 | 100 |  |
| C[C@]1(O[C@H]2OC(CO)[C@@H](O)C(F)C2O)OC(CO)[C@@H](O)C(O)C1O (stereo partly drawn) [Compound 6, 1-Deoxy-α-D-gluco-hept-2-ulopyranosyl-(2→1)-3-fluoro-3-deoxy-α-D-glucopyranoside] | 7 | 8 | 76 |  |
| OCC1O[C@H](O[C@@H]2OC(CO)[C@@H](O)C(O)C2F)C(F)C(O)[C@@H]1O (stereo partly drawn) [Compound 14, 2′-Deoxy-2′-fluoro-α-D-mannopyranosyl-(1→1)-2-deoxy-2-fluoro-β-D-mannopyranoside] | 7 | 35 | 82 |  |
| OCC1O[C@H](O[C@H]2OC(CO)[C@@H](O)C(O)C2F)C(F)C(O)[C@@H]1O (stereo partly drawn) [Compound 13, 2′-Deoxy-2′-fluoro-α-D-mannopyranosyl-(1→1)-2-deoxy-2-fluoro-α-D-mannopyranoside] | 66 | 24 | 98 |  |
| OCC1O[C@H](O[C@@H]2CC(O)[C@@H](O)C(CO)O2)CC(O)[C@H]1O (stereo partly drawn) [Compound 11, 2′-Deoxy-α-D-lyxo-hexopyranosyl-(1→1)-2-deoxy-α-D-lyxo-hexopyranoside] | 1 | 4 | 1 |  |
| C[C@]1(O[C@H]2OC(CO)[C@@H](O)C(O)C2F)OC(CO)[C@H](O)C(O)C1O (stereo partly drawn) [Compound 5, 1-Deoxy-α-D-galacto-hept-2-ulopyranosyl-(2→1)-2-deoxy-2-fluoro-α-D-glucopyranoside] | 19 | 13 | 64 |  |
| O=P(O)(O)OCC1O[C@H](O[C@H]2OC(CO)[C@@H](O)C(O)C2O)C(O)C(O)[C@@H]1O (stereo partly shown) [Compound 15, Trehalose-6-phosphate] | 6 | 4 | 28 |  |
| [N-]=[N+]=NCC1O[C@H](O[C@H]2OC(CO)[C@@H](O)C(O)C2O)C(O)C(O)[C@@H]1O (stereo partly drawn) [Compound 18, 6-Azido-D-trehalose] | 37 | 13 | 64 |  |
| C[C@]1(O[C@H]2OC(CO)[C@@H](O)C(O)C2O)OC(CO)[C@@H](O)C(O)C1O (stereo partly drawn) [Compound 2, 1-Deoxy-α-D-gluco-hept-2-ulopyranosyl-(2→1)-α-D-glucopyranoside] | 32 | 13 | 111 |  |
| OCC1O[C@H](O[C@@H]2CC(O)[C@H](O)C(CO)O2)CC(O)[C@@H]1O (stereo partly drawn) [Compound 10, 2′-Deoxy-α-D-arabino-hexopyranosyl-(1→1)-2-deoxy-α-D-arabino-hexopyranoside] | 50 | 16 | 129 |  |
| OCC1O[C@H](O[C@H]2OC(CO)[C@@H](O)C(O)C2I)C(I)C(O)[C@@H]1O (stereo partly drawn) [Compound 12, 2′-Deoxy-2′-iodo-α-D-mannopyranosyl-(1→1)-2-deoxy-2-iodo-α-D-mannopyranoside] | 148 | 54 | 166 |  |
| OCC1O[C@H](O[C@H]2OC(CF)[C@@H](O)C(O)C2O)C(O)C(O)[C@@H]1O (stereo partly drawn) [Compound 20, 6-deoxy-6-fluoro-α-D-glucopyranosyl-α-D-glucopyranoside] | 149 | 412 | 91 |  |
| C[C@]1(O[C@H]2OC(CO)[C@@H](O)C(O)C2NC(=S)Nc2ccc(-c3c4ccc(=O)cc-4oc4cc(O)ccc34)c(C(=O)O)c2)OC(CO)[C@@H](O)C(O)C1O (stereo partly drawn) [Compound 9, 1-Deoxy-α-D-gluco-hept-2-ulopyranosyl-(2→1)-2-N-fluorescein-2-deoxy-α-D-glucopyranoside] | 229 | 38 | 44 | colocalization of FITC-Tre and antibody |
| C[C@]1(O[C@H]2OC(CO)[C@@H](O)C(O)C2N)OC(CO)[C@@H](O)C(O)C1O (stereo partly drawn) [Compound 7, 1-Deoxy-α-D-gluco-hept-2-ulopyranosyl-(2→1)-2-amino-2-deoxy-α-D-glucopyranoside] | 47 | 56 | 91 |  |
| O=P1(O)OCC2O[C@H](O[C@H]3OC(CO)[C@@H](O)C(O)C3O)C(O)C(O)[C@@H]2O1 (stereo partly drawn) [Compound 17, 4,6-(monohydrogen)phosphoryl-D-trehalose] | 18 | 17 | 94 |  |
| OCC1O[C@H](O[C@H]2OC(CBr)[C@@H](O)C(O)C2O)C(O)C(O)[C@@H]1O (stereo partly drawn) [Compound 19, 6-deoxy-6-bromo-α-D-glucopyranosyl-α-D-glucopyranoside] | 102 | 92 | 99 |  |
| OC[C@H]1O[C@H](O[C@H]2O[C@H](CO)[C@H](F)[C@H](O)[C@H]2O)[C@H](O)[C@@H](O)[C@@H]1O [Compound 21, 4-deoxy-4-fluoro-α-D-galactopyranosyl α-D-glucopyranoside] | 229 | 412 | 91 |  |
| C[C@]1(O[C@H]2OC(CO)[C@@H](O)C(O)C2O)OC(CO)[C@H](O)C(O)C1O (stereo partly drawn) [Compound 4, 1-Deoxy-α-D-galacto-hept-2-ulopyranosyl-(2→1)-α-D-glucopyranoside] | 12 | 7 | 57 |  |
| COP(=O)(O)OCC1O[C@H](O[C@H]2OC(CO)[C@@H](O)C(O)C2O)C(O)C(O)[C@@H]1O (stereo partly drawn) [Compound 16, 6-O-monomethoxyphosphoryl-D-trehalose] | 37 | 24 | 113 |  |
